Measurements from patent US9359352B2, “Substituted benzimidazoles as PI3 kinase inhibitors” (Intellikine LLC, priority 2010, dated 2016).
Like-named read-outs stand apart in the source and are kept apart here.

Key:
Type in all cases: biochemical
[1] = target: T1, PI3K α (Homo sapiens, UniProt P42336); assay: PI 3-Kinase HTRF inhibition assay, PI3K α
T1 construct: purchased Upstate
Procedure: (§1) Commercial kits or systems for assaying PI3-K activities are available. The commercially available kits or systems can be used to screen for inhibitors and/or agonists of PI3-Ks including but not limited to PI 3-Kinase α, β, δ, and γ. An exemplary system is PI 3-Kinase (human) HTRF™ Assay from Upstate. […] Briefly, the assay is a time resolved FRET assay that indirectly measures PIP3 product formed by the activity of a PI3-K. The kinase reaction is performed in a microtitre plate (e.g., a 384 well microtitre plate). The total reaction volume is approximately 20 ul per well. In the first step, each well receives 2 ul of test compound in 20% dimethylsulphoxide resulting in a 2% DMSO final concentration. Next, approximately 14.5 ul of a kinase/PIP2 mixture (diluted in 1× reaction buffer) is added per well for a final concentration of 0.25-0.3 ug/ml kinase and 10 μM PIP2. The plate is scaled and incubated for 15 minutes at room temperature. To start the reaction, 3.5 ul of ATP (diluted in 1× reaction buffer) is added per well for a final concentration of 10 μM ATP. The plate is sealed and incubated for 1 hour at room temperature. The reaction is stopped by adding 5 ul of Stop Solution per well and then 5 ul of Detection Mix is added per well. The plate is sealed, incubated for 1 hour at room temperature, and then read on an appropriate plate reader. Data is analyzed and IC50s are generated using GraphPad Prism 5. For PI3K α, β, δ, and γ, the nM concentration of inhibitor to reach IC50 is provided. […] Similar assays, and others known in the art, can be used to measure the percent inhibition of other kinases, including but not limited to PI3K class II kinases, phosphoinositide 4 kinases (PI4K), and phosphoinositide 5 kinases (PI5K).

[2] = target: T2, PI3K γ (Homo sapiens, UniProt P48736); assay: PI 3-Kinase HTRF inhibition assay, PI3K γ; details: in vitro
T2 construct: purchased Upstate
T2 sequence (P48736 whole entry): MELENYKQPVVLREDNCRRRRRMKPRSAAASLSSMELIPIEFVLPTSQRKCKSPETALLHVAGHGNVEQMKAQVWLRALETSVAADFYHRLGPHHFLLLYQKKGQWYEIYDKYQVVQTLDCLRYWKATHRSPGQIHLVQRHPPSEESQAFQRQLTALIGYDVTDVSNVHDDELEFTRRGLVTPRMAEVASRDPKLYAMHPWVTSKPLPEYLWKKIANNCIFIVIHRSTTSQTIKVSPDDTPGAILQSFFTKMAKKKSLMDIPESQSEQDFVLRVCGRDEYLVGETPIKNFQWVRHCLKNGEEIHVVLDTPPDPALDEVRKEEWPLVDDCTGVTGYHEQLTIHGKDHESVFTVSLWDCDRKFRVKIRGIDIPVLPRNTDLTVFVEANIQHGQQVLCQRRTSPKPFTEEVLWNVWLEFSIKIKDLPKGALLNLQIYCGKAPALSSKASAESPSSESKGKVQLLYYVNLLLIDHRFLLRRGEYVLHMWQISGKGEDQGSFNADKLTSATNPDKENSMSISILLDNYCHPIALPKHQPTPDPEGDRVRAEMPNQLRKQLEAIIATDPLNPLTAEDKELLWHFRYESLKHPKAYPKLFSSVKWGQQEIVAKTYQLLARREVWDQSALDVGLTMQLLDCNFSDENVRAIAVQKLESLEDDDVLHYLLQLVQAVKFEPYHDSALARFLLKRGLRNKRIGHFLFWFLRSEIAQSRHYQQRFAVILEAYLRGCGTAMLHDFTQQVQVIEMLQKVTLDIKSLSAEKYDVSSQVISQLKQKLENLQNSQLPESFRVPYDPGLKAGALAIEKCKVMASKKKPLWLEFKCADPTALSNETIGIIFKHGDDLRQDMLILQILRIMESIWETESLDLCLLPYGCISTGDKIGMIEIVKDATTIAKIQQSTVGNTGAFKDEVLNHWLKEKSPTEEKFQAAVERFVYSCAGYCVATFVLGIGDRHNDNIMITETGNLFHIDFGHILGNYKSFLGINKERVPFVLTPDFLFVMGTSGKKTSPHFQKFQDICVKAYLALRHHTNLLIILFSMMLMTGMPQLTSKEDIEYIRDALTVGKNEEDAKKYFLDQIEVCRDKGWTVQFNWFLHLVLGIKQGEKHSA

[3] = target: T3, PI3K δ (Homo sapiens, UniProt O00329); assay: PI 3-Kinase HTRF inhibition assay, PI3K δ
T3 construct: purchased Upstate
T3 sequence (O00329 whole entry): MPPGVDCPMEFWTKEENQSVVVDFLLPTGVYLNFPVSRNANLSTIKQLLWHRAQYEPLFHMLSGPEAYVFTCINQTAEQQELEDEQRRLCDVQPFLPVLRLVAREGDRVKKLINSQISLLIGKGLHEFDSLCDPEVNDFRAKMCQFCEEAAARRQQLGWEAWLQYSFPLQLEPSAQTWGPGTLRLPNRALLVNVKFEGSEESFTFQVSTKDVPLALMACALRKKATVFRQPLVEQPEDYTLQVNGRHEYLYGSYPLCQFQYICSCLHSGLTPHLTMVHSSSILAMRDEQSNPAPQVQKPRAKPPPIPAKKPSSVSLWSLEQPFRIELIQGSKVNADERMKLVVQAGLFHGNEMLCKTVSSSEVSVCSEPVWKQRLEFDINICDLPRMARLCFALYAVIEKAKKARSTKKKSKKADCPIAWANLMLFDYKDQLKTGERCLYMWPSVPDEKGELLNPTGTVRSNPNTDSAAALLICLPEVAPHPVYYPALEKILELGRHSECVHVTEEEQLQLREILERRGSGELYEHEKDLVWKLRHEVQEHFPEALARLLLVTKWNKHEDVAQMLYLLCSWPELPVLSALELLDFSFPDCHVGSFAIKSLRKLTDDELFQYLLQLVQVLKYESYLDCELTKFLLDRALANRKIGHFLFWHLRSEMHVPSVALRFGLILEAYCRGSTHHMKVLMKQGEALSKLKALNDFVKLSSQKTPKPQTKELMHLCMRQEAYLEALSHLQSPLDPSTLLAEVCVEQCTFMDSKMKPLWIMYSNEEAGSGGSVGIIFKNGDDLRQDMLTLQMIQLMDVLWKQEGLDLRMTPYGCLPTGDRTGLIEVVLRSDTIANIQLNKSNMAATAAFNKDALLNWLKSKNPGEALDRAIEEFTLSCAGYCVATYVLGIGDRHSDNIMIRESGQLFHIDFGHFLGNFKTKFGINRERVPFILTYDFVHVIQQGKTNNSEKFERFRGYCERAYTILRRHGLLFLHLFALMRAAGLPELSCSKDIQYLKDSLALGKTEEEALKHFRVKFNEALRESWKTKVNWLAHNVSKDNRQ
T3 sequence (P27986 whole entry partner): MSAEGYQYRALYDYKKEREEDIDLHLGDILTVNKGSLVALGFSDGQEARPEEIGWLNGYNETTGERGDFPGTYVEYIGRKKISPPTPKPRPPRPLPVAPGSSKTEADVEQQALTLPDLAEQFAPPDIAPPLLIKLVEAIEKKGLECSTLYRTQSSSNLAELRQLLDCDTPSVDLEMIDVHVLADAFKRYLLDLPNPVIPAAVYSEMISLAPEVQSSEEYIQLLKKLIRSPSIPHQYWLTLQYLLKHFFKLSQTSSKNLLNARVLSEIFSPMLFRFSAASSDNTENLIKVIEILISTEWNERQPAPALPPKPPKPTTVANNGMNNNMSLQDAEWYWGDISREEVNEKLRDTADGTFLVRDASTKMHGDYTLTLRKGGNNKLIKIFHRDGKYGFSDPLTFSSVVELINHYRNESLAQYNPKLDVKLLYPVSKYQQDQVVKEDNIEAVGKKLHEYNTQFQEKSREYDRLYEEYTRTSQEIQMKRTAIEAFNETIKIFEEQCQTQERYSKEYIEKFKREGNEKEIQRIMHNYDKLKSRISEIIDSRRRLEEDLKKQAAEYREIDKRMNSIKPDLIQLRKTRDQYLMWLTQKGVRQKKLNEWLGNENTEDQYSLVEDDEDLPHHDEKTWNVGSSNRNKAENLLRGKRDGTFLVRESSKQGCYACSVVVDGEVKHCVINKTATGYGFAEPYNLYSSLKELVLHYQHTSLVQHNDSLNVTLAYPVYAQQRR
Procedure: as §1

[4] = target: T4, PI3K β (Homo sapiens, UniProt P42338); assay: PI 3-Kinase HTRF inhibition assay, PI3K β; details: in vitro
T4 construct: purchased Upstate
T4 sequence (P42338 whole entry): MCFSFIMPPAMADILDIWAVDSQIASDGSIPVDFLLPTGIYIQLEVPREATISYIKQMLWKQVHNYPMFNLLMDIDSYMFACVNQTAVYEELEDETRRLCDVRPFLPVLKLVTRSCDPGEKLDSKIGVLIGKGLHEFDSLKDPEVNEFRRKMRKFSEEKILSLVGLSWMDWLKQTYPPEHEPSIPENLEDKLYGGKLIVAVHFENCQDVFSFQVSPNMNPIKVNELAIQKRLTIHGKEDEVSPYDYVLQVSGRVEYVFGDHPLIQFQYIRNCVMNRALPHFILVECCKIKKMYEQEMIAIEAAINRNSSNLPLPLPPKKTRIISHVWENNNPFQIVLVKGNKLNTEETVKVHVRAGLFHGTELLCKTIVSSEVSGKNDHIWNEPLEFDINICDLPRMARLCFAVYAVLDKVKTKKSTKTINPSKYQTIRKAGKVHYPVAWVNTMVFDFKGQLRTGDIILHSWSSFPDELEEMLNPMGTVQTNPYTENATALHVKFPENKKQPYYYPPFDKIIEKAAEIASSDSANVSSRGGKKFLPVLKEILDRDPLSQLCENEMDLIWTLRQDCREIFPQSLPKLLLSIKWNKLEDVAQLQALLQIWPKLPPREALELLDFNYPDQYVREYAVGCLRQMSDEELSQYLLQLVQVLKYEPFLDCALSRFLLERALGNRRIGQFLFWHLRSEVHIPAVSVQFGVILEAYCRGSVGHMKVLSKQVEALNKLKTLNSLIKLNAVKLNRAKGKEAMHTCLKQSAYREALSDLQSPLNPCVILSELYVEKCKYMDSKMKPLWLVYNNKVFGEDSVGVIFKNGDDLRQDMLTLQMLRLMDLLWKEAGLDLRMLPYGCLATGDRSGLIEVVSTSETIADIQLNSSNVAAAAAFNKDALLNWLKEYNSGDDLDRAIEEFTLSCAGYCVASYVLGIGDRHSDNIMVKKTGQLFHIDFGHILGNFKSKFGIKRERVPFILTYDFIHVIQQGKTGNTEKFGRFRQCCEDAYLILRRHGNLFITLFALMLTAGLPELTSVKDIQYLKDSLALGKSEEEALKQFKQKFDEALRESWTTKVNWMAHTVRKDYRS
T4 sequence (P27986 whole entry partner): as the sequence (P27986 whole entry partner) above
Procedure: as §1

[5] = in vitro, read-out: PI3K α IC50
[6] = in vitro, read-out: PI3K δ IC50

T1 sequence (P42336 whole entry): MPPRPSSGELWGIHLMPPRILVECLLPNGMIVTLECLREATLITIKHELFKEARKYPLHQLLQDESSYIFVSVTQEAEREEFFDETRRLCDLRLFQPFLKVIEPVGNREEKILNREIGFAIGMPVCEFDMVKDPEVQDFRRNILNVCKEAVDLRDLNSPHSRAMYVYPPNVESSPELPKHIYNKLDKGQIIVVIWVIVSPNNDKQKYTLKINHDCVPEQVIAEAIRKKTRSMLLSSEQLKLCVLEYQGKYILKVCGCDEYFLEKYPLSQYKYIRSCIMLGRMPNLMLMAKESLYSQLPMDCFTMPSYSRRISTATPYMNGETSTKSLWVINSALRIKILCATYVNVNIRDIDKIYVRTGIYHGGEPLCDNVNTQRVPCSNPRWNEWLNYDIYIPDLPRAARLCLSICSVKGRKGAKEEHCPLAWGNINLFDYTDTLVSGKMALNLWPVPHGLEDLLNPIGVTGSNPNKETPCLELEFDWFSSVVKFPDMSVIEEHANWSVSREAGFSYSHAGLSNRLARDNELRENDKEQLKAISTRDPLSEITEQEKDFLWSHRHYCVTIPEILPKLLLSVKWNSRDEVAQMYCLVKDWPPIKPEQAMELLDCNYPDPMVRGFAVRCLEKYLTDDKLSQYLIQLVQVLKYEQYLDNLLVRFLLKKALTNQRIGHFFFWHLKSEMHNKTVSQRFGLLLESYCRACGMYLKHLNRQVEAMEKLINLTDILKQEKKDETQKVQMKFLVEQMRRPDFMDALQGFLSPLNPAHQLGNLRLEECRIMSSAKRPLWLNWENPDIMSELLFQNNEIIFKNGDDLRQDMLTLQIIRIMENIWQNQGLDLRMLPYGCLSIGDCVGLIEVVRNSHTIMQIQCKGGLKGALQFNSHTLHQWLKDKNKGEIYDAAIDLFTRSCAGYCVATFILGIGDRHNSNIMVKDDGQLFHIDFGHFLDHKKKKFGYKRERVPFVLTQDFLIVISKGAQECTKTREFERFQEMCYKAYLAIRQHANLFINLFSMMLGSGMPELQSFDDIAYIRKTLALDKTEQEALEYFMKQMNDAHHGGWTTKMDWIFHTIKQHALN
T1 sequence (P27986 whole entry partner): as the sequence (P27986 whole entry partner) above

IC50 [1, 5]	IC50 [2]	IC50 [3, 6]	IC50 [4]	SMILES	IC50 [1]	IC50 [3]
< 100 nM	< 1000 nM	< 1000 nM	< 100 nM	C[C@@H](N)C(=O)N1CCN(c2cnc3ccc(-c4ccc5oc(N)nc5c4)nc3c2)CC1 [Compound 39]		
< 100 nM	< 10000 nM	< 1000 nM	< 10000 nM	Nc1nc2cc(-c3ccc4ncc(N5CC(N6CCN(CC7CC7)CC6)C5)cc4n3)ccc2o1 [Compound 60]		
< 100 nM	< 1000 nM	< 1000 nM	< 1000 nM	NCC(=O)N1CCN(c2cnc3ccc(-c4ccc5oc(N)nc5c4)nc3c2)CC1 [Compound 37]		
< 100 nM	< 1000 nM	< 1000 nM		CC(C)(N)C(=O)N1CCN(c2cnc3ccc(-c4ccc5oc(N)nc5c4)nc3c2)CC1 [Compound 43, 2-amino-1-(4-(6-(2-aminobenzo[d]oxazol-5-yl)-1,5-naphthyridin-3-yl)piperazin-1-yl)-2-methylpropan-1-one]		
< 10000 nM	> 10000 nM	> 10000 nM	> 10000 nM	CC(C)N1CCN(C2CN(c3cnc4ccc(-c5ccc6oc(N)nc6c5)nc4n3)C2)CC1 [Compound 77]		
< 1000 nM	< 10000 nM	> 10000 nM	> 10000 nM	CC1CN(C2CN(c3cnc4ccc(-c5ccc6oc(N)nc6c5)nc4n3)C2)CCO1 (centres unmarked) [Compound 18]		
< 100 nM	< 10000 nM	< 10000 nM	< 10000 nM	CCN1CCN(C2CN(c3cnc4ccc(-c5ccc6oc(N)nc6c5)nc4n3)C2)CC1 [Compound 76]		
< 100 nM	< 10000 nM	< 1000 nM	< 10000 nM	C[C@@H]1CN(C2CN(c3cnc4ccc(-c5ccc6oc(N)nc6c5)nc4c3)C2)CCN1C [Compound 57]		
< 100 nM	< 10000 nM	< 1000 nM	< 10000 nM	C[C@H]1CN(C2CN(c3cnc4ccc(-c5ccc6oc(N)nc6c5)nc4c3)C2)CCN1 [Compound 54]		
< 100 nM	< 1000 nM	< 100 nM	< 1000 nM	CN1CCN(C2CN(c3cnc4ccc(-c5ccc6oc(N)nc6c5)nc4c3)C2)CC1(C)C [Compound 83]		
< 100 nM	> 10000 nM	> 10000 nM	> 10000 nM	CN1CCN(C2CN(c3cnc4ccc(-c5ccc6nc(N)[nH]c6c5)nc4c3)C2)CC1 [Compound 88]		
< 100 nM	< 1000 nM	< 1000 nM	< 10000 nM	C[C@@H]1CN(C2CN(c3cnc4ccc(-c5ccc6oc(N)nc6c5)nc4c3)C2)CCN1 [Compound 56]		

The remaining lines, values behind:

SMILES	IC50 [1, 5]	IC50 [2]	IC50 [3, 6]	IC50 [4]	IC50 [1]	IC50 [3]
Nc1nc2cc(-c3ccc4ncc(C5=CCOCC5)nc4n3)ccc2o1 [Compound 11]	< 100 nM	< 100 nM	> 10000 nM	< 10000 nM		
C[C@H]1COCCN1c1cnc2ccc(-c3ccc4oc(N)nc4c3)nc2n1 [Compound 15]	< 100 nM	< 100 nM	> 10000 nM	< 10000 nM		
C[C@@H]1COCCN1c1cnc2ccc(-c3ccc4oc(N)nc4c3)nc2n1 [Compound 14]	< 100 nM	< 100 nM	< 10000 nM	< 10000 nM		
Nc1nc2cc(-c3cnc4ccc(N5C6CCC5COC6)nc4c3)ccc2o1 [Compound 81]		< 10000 nM	> 10000 nM	> 10000 nM	< 10000 nM	
Nc1nc2cc(-c3ccc4ncc(N5CC(N6C7CCC6COC7)C5)cc4n3)ccc2o1 [Compound 67]	< 100 nM	< 1000 nM		> 10000 nM		< 10000 nM
CCN(CC)c1cnc2ccc(-c3ccc4oc(N)nc4c3)nc2n1 [Compound 26]	< 1000 nM	< 1000 nM	< 10000 nM	> 10000 nM		
Nc1nc2cc(-c3ccc4ncc(-c5cccnc5)nc4n3)ccc2o1 [Compound 3]	< 1000 nM	< 1000 nM	> 10000 nM	< 10000 nM		
C[C@@H](N)C(=O)N1CCN(c2cnc3ccc(-c4ccc5oc(N)nc5c4)nc3n2)CC1 [Compound 31]	< 100 nM	< 1000 nM	< 10000 nM	< 10000 nM		
Cc1nccn1C1CN(c2cnc3ccc(-c4ccc5oc(N)nc5c4)nc3n2)C1 [Compound 50]	< 100 nM	< 10000 nM	< 10000 nM	< 10000 nM		
